Literature values as cited in US10966913B2, “Cosmetic use of spiculisporic acid as a deodorant active agent” (L'OREAL, priority 2014, dated 2021).

Settings: room temperature

solubility in ethanol: soluble | solubility in fatty substances: insoluble | solubility in water: insoluble
Structure (SMILES): CCCCCCCCCCC(C(=O)O)C1(C(=O)O)CCC(=O)O1 (stereo not drawn) [spiculisporic acid, 4,5-dicarboxy-4-pentadecanolide]
